According to patent US11065253B2, “Arylquinazolines” (Merck Patent GmbH, priority 2013, dated 2021):
Where two headings read alike, the source gives them in different places.

System: phospho-serine 2056 DNA-PK in HCT116 cells
Assay: DNA-PK phosphorylation at serine 2056 (cellular), ELISA in bleomycin-treated HCT116 cells
Type: cell-based
Conditions: read-out: IC50 pDNA-PK
How it was run: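 Test compounds and bleomycin (10 μM) are added to adherent HCT116 cells for 6 h. Detection uses an HRP-based chemiluminescent ELISA, with phospho-DNA-PK signals standardised to total protein.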

[1] = Homo sapiens, HCT-116, cellular DNA-PK phosphorylation at serine 2056, HCT116 cells
[2] = cellular DNA-PK phosphorylation at serine 2056, HCT116 cells

SMILES | IC50 [1] | IC50 [2]
Cn1cnc2c(C(O)c3cc(-c4ncnc5cc(N6CCOCC6)ccc45)ccc3F)ncnc21 (centres unmarked) [Example 370, [2-Fluoro-5-(7-morpholin-4-yl-quinazolin-4-yl)-phenyl]-(9-methyl-9H-purin-6-yl)-methanol] | 500 to 5000 nM | –
Cn1cnc2c(C(O)c3cc(-c4ncnc5cc(N6CCOCC6)ccc45)ccc3Cl)ncnc21 (centres unmarked) [Example 371, [2-Chloro-5-(7-morpholin-4-yl-quinazolin-4-yl)-phenyl]-(9-methyl-9H-purin-6-yl)-methanol] | 500 to 5000 nM | –
OC(c1cc(-c2ncnc3cc(N4CCOCC4)ccc23)ccc1F)c1nccn2ccnc12 (centres unmarked) [Example 372, [2-Fluoro-5-(7-morpholin-4-yl-quinazolin-4-yl)-phenyl]imidazo-[1,2-a]pyrazin-8-yl-methanol] | 500 to 5000 nM | –
OC(c1cc(-c2ncnc3cc(N4CCOCC4)ccc23)ccc1F)c1cccc2nncn12 (centres unmarked) [Example 373, [2-Fluoro-5-(7-morpholin-4-yl-quinazolin-4-yl)-phenyl]-[1,2,4]-triazolo[4,3-a]pyridin-5-ylmethanol] | 500 to 5000 nM | –
OC(c1cc(-c2ncnc3cc(N4CCOCC4)ccc23)ccc1F)c1ncnc2ccoc12 (centres unmarked) [Example 374, [2-Fluoro-5-(7-morpholin-4-yl-quinazolin-4-yl)-phenyl]furo[3,2-d}-pyrimidin-4-yl-methanol] | 500 to 5000 nM | –
Cn1c(C(O)c2ccc(F)c(-c3ncnc4cc(N5CCOCC5)ccc34)c2)cccc1=O (centres unmarked) [Example 375, 6-{[4-Fluoro-3-(7-morpholin-4-yl-quinazolin-4-yl)-phenyl]hydroxy-methyl}-1-methyl-1H-pyridin-2-one (Ena 2)] | 500 to 5000 nM | –
Cn1c(C(O)c2ccc(F)c(-c3ncnc4cc(N5CCOCC5)ccc34)c2)cccc1=O (centres unmarked) [Example 376, 6-{[4-Fluoro-3-(7-morpholin-4-yl-quinazolin-4-yl)-phenyl]hydroxy-methyl}-1-methyl-1H-pyridin-2-one (Ena 1)] | – | < 500 nM
Cc1cncnc1C(C(N)=O)c1cc(-c2ncnc3cc(N4CCOCC4)ccc23)ccc1Cl (centres unmarked) [Example 377, 2-[2-Chloro-5-(7-morpholin-4-yl-quinazolin-4-yl)-phenyl]-2-(5-methyl-pyrimidin-4-yl)-acetamide (Ena 2)] | 500 to 5000 nM | –
Cc1cncnc1C(C(N)=O)c1cc(-c2ncnc3cc(N4CCOCC4)ccc23)ccc1Cl (centres unmarked) [Example 378, 2-[2-Chloro-5-(7-morpholin-4-yl-quinazolin-4-yl)-phenyl]-2-(5-methyl-pyrimidin-4-yl)-acetamide (Ena 1)] | – | 500 to 5000 nM
OC(c1cc(-c2ncnc3cc(N4CCOCC4)ccc23)c(F)cc1F)c1nnc2ccccn12 (centres unmarked) [Example 379, [2,4-Difluoro-5-(7-morpholin-4-yl-quinazolin-4-yl)-phenyl]-[1,2,4]-triazolo[4,3-a]pyridin-3-ylmethanol] | 500 to 5000 nM | –
Cn1c(C(O)c2cc(-c3ncnc4cc(N5CCOCC5)ccc34)c(F)cc2F)cccc1=O (centres unmarked) [Example 380, 6-{[2,4-Difluoro-5-(7-morpholin-4-yl-quinazolin-4-yl)-phenyl]hydroxy-methyl}-1-methyl-1H-pyridin-2-one (Ena 2)] | 500 to 5000 nM | –
Cn1c(C(O)c2cc(-c3ncnc4cc(N5CCOCC5)ccc34)c(F)cc2F)cccc1=O (centres unmarked) [Example 381, 6-{[2,4-Difluoro-5-(7-morpholin-4-yl-quinazolin-4-yl)-phenyl]hydroxy-methyl}-1-methyl-1H-pyridin-2-one (Ena 1)] | – | 500 to 5000 nM
Cn1c(C(O)c2cc(-c3ncnc4cc(N5CCOCC5)ccc34)c(F)cc2Cl)cccc1=O (centres unmarked) [Example 382, 6-{[2-Chloro-4-fluoro-5-(7-morpholin-4-yl-quinazolin-4-yl)-phenyl]hydroxy-methyl}-1-methyl-1H-pyridin-2-one (Ena 2)] | 500 to 5000 nM | –
Cn1c(C(O)c2cc(-c3ncnc4cc(N5CCOCC5)ccc34)c(F)cc2Cl)cccc1=O (centres unmarked) [Example 383, 6-{[2-Chloro-4-fluoro-5-(7-morpholin-4-yl-quinazolin-4-yl)-phenyl]hydroxy-methyl}-1-methyl-1H-pyridin-2-one (Ena 1)] | – | < 500 nM
Cn1ncc2c(C(O)c3cc(-c4ncnc5cc(N6CCOCC6)ccc45)ccc3F)ncnc21 (centres unmarked) [Example 391, [2-Fluoro-5-(7-morpholin-4-yl-quinazolin-4-yl)-phenyl]-(1-methyl-1H-pyrazolo[3,4-d}-pyrimidin-4-yl)-methanol] | 500 to 5000 nM | –
Cc1cncnc1C(O)c1cc(-c2ncnc3cc(N4CCOCC4)ccc23)ccc1F (centres unmarked) [Example 392, [2-Fluoro-5-(7-morpholin-4-yl-quinazolin-4-yl)-phenyl]-(5-methyl-pyrimidin-4-yl)-methanol] | 500 to 5000 nM | –
Cc1nccnc1C(O)c1cc(-c2ncnc3cc(N4CCOCC4)ccc23)ccc1F (centres unmarked) [Example 393, [2-Fluoro-5-(7-morpholin-4-yl-quinazolin-4-yl)-phenyl]-(3-methyl-pyrazin-2-yl)-methanol] | 5000 to 10000 nM | –
COc1nccnc1C(O)c1cc(-c2ncnc3cc(N4CCOCC4)ccc23)ccc1F (centres unmarked) [Example 394, [2-Fluoro-5-(7-morpholin-4-yl-quinazolin-4-yl)-phenyl]-(3-methoxy-pyrazin-2-yl)-methanol] | 500 to 5000 nM | –

SMILES | IC50 [1] | IC50 [2]
OC(c1cc(-c2ncnc3cc(N4CCOCC4)ccc23)c(F)cc1Cl)c1nccn2ccnc12 (centres unmarked) [Example 397, [2-Chloro-4-fluoro-5-(7-morpholin-4-yl-quinazolin-4-yl)-phenyl]imidazo-[1,2-a]pyrazin-8-yl-methanol] | – | < 500 nM
CCn1c(C(O)c2ccc(F)c(-c3ncnc4cc(N5CCOCC5)ccc34)c2)cccc1=O (centres unmarked) [Example 398, 1-Ethyl-6-{[4-fluoro-3-(7-morpholin-4-yl-quinazolin-4-yl)-phenyl]hydroxy-methyl}-1H-pyridin-2-one] | 500 to 5000 nM | –
OC(c1ccc(F)c(-c2ncnc3cc(N4CCOCC4)ccc23)c1)c1nnc2ccccn12 (centres unmarked) [Example 399, [4-Fluoro-3-(7-morpholin-4-yl-quinazolin-4-yl)-phenyl]-[1,2,4]-triazolo[4,3-a]pyridin-3-ylmethanol] | 500 to 5000 nM | –
Cn1c(C(O)c2cc(-c3ncnc4cc(N5CCOCC5)ccc34)ccc2Cl)cccc1=O (centres unmarked) [Example 400, 6-{[2-Chloro-5-(7-morpholin-4-yl-quinazolin-4-yl)-phenyl]hydroxy-methyl}-1-methyl-1H-pyridin-2-one] | < 500 nM | –
Cn1ncc2c(C(O)c3cc(-c4ncnc5cc(N6CCOCC6)ccc45)c(F)cc3Cl)ncnc21 (centres unmarked) [Example 402, [2-Chloro-4-fluoro-5-(7-morpholin-4-yl-quinazolin-4-yl)-phenyl]-(1-methyl-1H-pyrazolo[3,4-d}-pyrimidin-4-yl)-methanol] | 500 to 5000 nM | –
Cn1ncc2c(C(O)c3cc(-c4ncnc5cc(N6CCOCC6)ccc45)c(F)cc3F)ncnc21 (centres unmarked) [Example 403, [2,4-Difluoro-5-(7-morpholin-4-yl-quinazolin-4-yl)-phenyl]-(1-methyl-1H-pyrazolo[3,4-d}-pyrimidin-4-yl)-methanol] | 500 to 5000 nM | –
Cn1ncc2c(C(O)c3ccc(F)c(-c4ncnc5cc(N6CCOCC6)ccc45)c3)ncnc21 (centres unmarked) [Example 404, [4-Fluoro-3-(7-morpholin-4-yl-quinazolin-4-yl)-phenyl]-(1-methyl-1H-pyrazolo[3,4-d}-pyrimidin-4-yl)-methanol] | < 500 nM | –
OC(c1cc(-c2ncnc3cc(N4CCOCC4)ccc23)ccc1F)c1ncnc2ccsc12 (centres unmarked) [Example 405, [2-Fluoro-5-(7-morpholin-4-yl-quinazolin-4-yl)-phenyl]thieno[3,2-d}-pyrimidin-4-yl-methanol] | < 500 nM | –
OC(c1cc(-c2ncnc3cc(N4CCOCC4)ccc23)ccc1F)c1ncnc2sccc12 (centres unmarked) [Example 406, [2-Fluoro-5-(7-morpholin-4-yl-quinazolin-4-yl)-phenyl]thieno[2,3-d}-pyrimidin-4-yl-methanol] | < 500 nM | –
Cc1cncnc1C(C(N)=O)c1cc(-c2ncnc3cc(N4CCOCC4)ccc23)ccc1Cl (centres unmarked) [Example 407, 2-[2-Chloro-5-(7-morpholin-4-yl-quinazolin-4-yl)-phenyl]-2-(5-methyl-pyrimidin-4-yl)-acetamide] | – | 500 to 5000 nM
COc1cncnc1C(O)c1cc(-c2ncnc3cc(N4CCOCC4)ccc23)ccc1Cl (centres unmarked) [Example 408, [2-Chloro-5-(7-morpholin-4-yl-quinazolin-4-yl)-phenyl]-(5-methoxy-pyrimidin-4-yl)-methanol (Ena 2)] | 500 to 5000 nM | –
COc1cncnc1C(O)c1cc(-c2ncnc3cc(N4CCOCC4)ccc23)ccc1Cl (centres unmarked) [Example 409, [2-Chloro-5-(7-morpholin-4-yl-quinazolin-4-yl)-phenyl]-(5-methoxy-pyrimidin-4-yl)-methanol (Ena 1)] | – | 500 to 5000 nM
COc1nccnc1C(O)c1cc(-c2ncnc3cc(N4CCOCC4)ccc23)ccc1Cl (centres unmarked) [Example 410, [2-Chloro-5-(7-morpholin-4-yl-quinazolin-4-yl)-phenyl]-(3-methoxy-pyrazin-2-yl)-methanol (Ena 2)] | < 500 nM | –
COc1nccnc1[C@@H](O)c1cc(-c2ncnc3cc(N4CCOCC4)ccc23)ccc1Cl [Example 411, (S)-[2-Chloro-5-(7-morpholin-4-yl-quinazolin-4-yl)-phenyl]-(3-methoxy-pyrazin-2-yl)-methanol (Ena 1)] | – | 500 to 5000 nM
COc1cncnc1C(O)c1cc(-c2ncnc3cc(N4CCOCC4)ccc23)ccc1Cl (centres unmarked) [Example 413, [2-Chloro-5-(7-morpholin-4-yl-quinazolin-4-yl)-phenyl]-(5-methoxy-pyrimidin-4-yl)-methanol] | – | 500 to 5000 nM
OC(c1cc(-c2ncnc3cc(N4CCOCC4)ccc23)ccc1Cl)c1ncnc2ccoc12 (centres unmarked) [Example 414, [2-Chloro-5-(7-morpholin-4-yl-quinazolin-4-yl)-phenyl]furo[3,2-d}-pyrimidin-4-yl-methanol (Ena 2)] | < 500 nM | –
OC(c1cc(-c2ncnc3cc(N4CCOCC4)ccc23)ccc1Cl)c1ncnc2ccoc12 (centres unmarked) [Example 415, [2-Chloro-5-(7-morpholin-4-yl-quinazolin-4-yl)-phenyl]furo[3,2-d}-pyrimidin-4-yl-methanol (Ena 1)] | – | < 500 nM
